Source: patent US20160038597A9, “CARRIER THAT TARGETS FUCOSYLATED MOLECULE-PRODUCING CELLS” (priority 2010, published 2016)

Key:
PANC-1 = assay: 14C-fucose binding to cells; conditions: 14C-fucose 0-200 nM, 4° C., 1 hr
Method: (§1) Binding of fucose (fucose refers to L-fucose, unless otherwise stated) to the fucosylated sugar chain high-producing cell line ASPC-1 and fucosylated sugar chain low-producing cell line PANC-1 was investigated using radiolabeled fucose.
(§2) In a 12-well culture plate, 1×10^5 cells were seeded and cultured overnight, and ^14C-fucose (specific activity: 55 mCi/mmol) diluted with BSA-PBS at a concentration of 0-200 nM was added to the cells and cultured at 4° C. for 1 hr. The cells were washed with cold BSA-PBS, lysed by 1% Triton X100/PBS-0.25% trypsin, and the radioactivity of the ^14C-fucose bound to the cell membrane was measured (FIGS. 3 and 4).

ASPC-1 = assay: 14C-fucose binding to cells
Method: as §1, §2
In another experiment, in a 12-well culture plate, 2×10^5 cells were seeded and cultured overnight, 10 nmol of ^14C-fucose (specific activity: 55 mCi/mmol) were added to the cells either singly or together with 1 pmol of fucose, and cultured at 4° C. for 1, 3, or 24 hr. The cells under each condition were washed with cold BSA-PBS, lysed by 1% Triton X100/PBS-0.25% trypsin, and the radioactivity of the ^14C-fucose was measured (FIG. 5).

Compound: C[C@H](O)[C@@H](O)[C@@H](O)[C@H](O)C=O [fucose, L-fucose]
- binding of fucose to cells (PANC-1): binds to ASPC-1 and PANC-1 via a receptor-like mechanism
- binding of 14C-fucose in competition with excessive non-labeled fucose (ASPC-1; 10 nmol 14C-fucose with non-labeled fucose, 4° C., 1, 3 or 24 hr): inhibited
- binding of fucose to cells (affinity) (ASPC-1; 14C-fucose 0-200 nM, 4° C., 1 hr, compared with PANC-1): affinity is higher
